# Results published in patent US20230365592A1 (Agios Pharmaceuticals, Inc., priority 2022, published 2023).
# Target: T1, human PAH with the R408W mutation (Homo sapiens, UniProt P00439, R408W)
# T1 construct: expressed in transfected cells
# T1 sequence (P00439 1-452 R408W): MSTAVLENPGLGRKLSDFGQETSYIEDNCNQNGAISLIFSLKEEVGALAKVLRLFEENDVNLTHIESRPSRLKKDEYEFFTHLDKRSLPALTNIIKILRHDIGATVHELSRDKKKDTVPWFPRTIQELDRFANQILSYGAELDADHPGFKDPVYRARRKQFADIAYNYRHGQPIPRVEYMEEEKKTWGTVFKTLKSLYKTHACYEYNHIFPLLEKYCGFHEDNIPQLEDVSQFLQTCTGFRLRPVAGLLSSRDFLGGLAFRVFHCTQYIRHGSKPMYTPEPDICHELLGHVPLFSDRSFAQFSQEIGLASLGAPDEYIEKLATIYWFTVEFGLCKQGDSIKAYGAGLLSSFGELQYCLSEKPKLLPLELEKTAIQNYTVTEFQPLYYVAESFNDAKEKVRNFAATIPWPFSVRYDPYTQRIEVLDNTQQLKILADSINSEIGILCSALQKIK
# Assay: Cell Based Phenylalanine Flux Assay;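 note: after compound treatment, cells received sepiapterin plus isotope-labelled Phenylalanine for 4 hours, then labelled Tyrosine in the medium was quantified, 10-point 2-fold dilution series run in duplicate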
# Details: A375 cells expressing R408W PAH; 24 hrs with compound, then 20 µM sepiapterin and 800 µM 13C9,15N-Phenylalanine for 4 hours; 13C-Tyrosine by LC-MS; average where tested multiple times; read-out: AC50
row,SMILES,AC50
1,"O=C(c1cnco1)N1CCc2[nH]cnc2[C@H]1c1cc2ccc(F)cn2n1 (single isomer, unassigned)",1000 to 5000 nM
2,Cc1nc(C(=O)N2CCc3[nH]cnc3C2c2cc3cccc(C(F)(F)F)n3n2)n(C)n1 (stereo not drawn),> 5000 nM
3,CC(C)(C)c1nnc(N2CCc3[nH]cnc3C2c2cc3cccc(C(F)(F)F)n3n2)o1 (stereo not drawn),> 5000 nM
4,Cc1ccn2nc(C3c4nc[nH]c4CCN3C(=O)c3nnc(-c4cnn(C)c4)o3)cc2c1 (stereo not drawn),1000 to 5000 nM
5,Cc1cccc2cc(C3c4nc[nH]c4CCN3C(=O)c3cnco3)nn12 (stereo not drawn),1000 to 5000 nM
6,O=C(C1CN(c2ccccn2)C1)N1CCc2[nH]cnc2C1c1cc2ccccn2n1 (stereo not drawn),1000 to 5000 nM
7,Cc1nnc(C(=O)N2CCc3[nH]cnc3C2c2cc3cccc(Cl)n3n2)o1 (stereo not drawn),1000 to 5000 nM
8,COc1ccc2c(C(=O)N3CCc4[nH]cnc4C3c3cc4cccc(C(F)F)n4n3)cnn2c1 (stereo not drawn),1000 to 5000 nM
9,O=C(c1nnc(C2CC(F)(F)C2)o1)N1CCc2[nH]cnc2C1c1cc2cccc(Cl)n2n1 (stereo not drawn),1000 to 5000 nM
10,Cn1cc(-c2ncc(C(=O)N3CCc4[nH]cnc4C3c3cc4c(F)cccn4n3)o2)cn1 (stereo not drawn),> 5000 nM
11,Cc1cccn2nc(C3c4nc[nH]c4CCN3c3nnc(-c4cccnc4)o3)cc12 (stereo not drawn),1000 to 5000 nM

# Same assay, conditions: A375 cells expressing human PAH R408W; 24 hrs compound incubation; 13C-Tyrosine by LC-MS; average where tested multiple times; read-out: AC50
row,SMILES,AC50
1,"O=C(c1cnn2cc(-c3ccccn3)ccc12)N1CCc2[nH]cnc2[C@H]1c1cc2cccc(C(F)(F)F)n2n1 [Example 2452, (S)-(6-(pyridin-2-yl)pyrazolo[1,5-a]pyridin-3-yl)(4-(7-(trifluoromethyl)pyrazolo[1,5-a]pyridin-2-yl)-6,7-dihydro-1H-imidazo[4,5-c]pyridin-5(4H)-yl)methanone]",1000 to 5000 nM
2,"O=C(c1cnc(C2CC2)o1)N1CCc2[nH]cnc2[C@H]1c1cc2ccccn2n1 [Example 2496, (S)-(2-cyclopropyloxazol-5-yl)(4-(pyrazolo[1,5-a]pyridin-2-yl)-1,4,6,7-tetrahydro-5H-imidazo[4,5-c]pyridin-5-yl)methanone]",1000 to 5000 nM
3,"Cc1cccc2cc([C@H]3c4nc[nH]c4CCN3c3ncc(C(F)(F)F)cn3)nn12 [Example 1803, (R)-4-(7-methylpyrazolo[1,5-a]pyridin-2-yl)-5-(5-(trifluoromethyl)pyrimidin-2-yl)-4,5,6,7-tetrahydro-1H-imidazo[4,5-c]pyridine]",> 5000 nM
4,"Fc1cccnc1-c1nnc(N2CCc3[nH]cnc3[C@H]2c2cc3ccccn3n2)o1 [Example 2338, (S)-2-(3-fluoropyridin-2-yl)-5-(4-(pyrazolo[1,5-a]pyridin-2-yl)-1,4,6,7-tetrahydro-5H-imidazo[4,5-c]pyridin-5-yl)-1,3,4-oxadiazole]",500 to 1000 nM
5,"Cn1nc(C(F)(F)F)nc1C(=O)N1CCc2[nH]cnc2[C@H]1c1cc2c(F)cccn2n1 [Example 2398, (S)-(4-(4-fluoropyrazolo[1,5-a]pyridin-2-yl)-6,7-dihydro-1H-imidazo[4,5-c]pyridin-5(4H)-yl)(1-methyl-3-(trifluoromethyl)-1H-1,2,4-triazol-5-yl)methanone]",1000 to 5000 nM
6,"Fc1cccn2nc([C@@H]3c4nc[nH]c4CCN3c3ccccn3)cc12 [Example 1977, (S)-4-(4-fluoropyrazolo[1,5-a]pyridin-2-yl)-5-(pyridin-2-yl)-4,5,6,7-tetrahydro-1H-imidazo[4,5-c]pyridine]",500 to 1000 nM
7,"Fc1ccc(-c2nnc(N3CCc4[nH]cnc4[C@@H]3c3cc4cccc(C(F)F)n4n3)o2)cc1 [Example 2130, (R)-2-(4-(7-(difluoromethyl)pyrazolo[1,5-a]pyridin-2-yl)-1,4,6,7-tetrahydro-5H-imidazo[4,5-c]pyridin-5-yl)-5-(4-fluorophenyl)-1,3,4-oxadiazole]",> 5000 nM

# Same assay, conditions: A375 cells expressing human R408W PAH; 24 hrs compound incubation; 13C-Tyrosine by LC-MS; average where tested multiple times; read-out: AC50
row,SMILES,AC50
1,"Cc1ncoc1C(=O)N1CCc2[nH]cnc2[C@H]1c1cc2cccc(C)n2n1 [Example 1148, (S)-(4-methyloxazol-5-yl)(4-(7-methylpyrazolo[1,5-a]pyridin-2-yl)-6,7-dihydro-1H-imidazo[4,5-c]pyridin-5(4H)-yl)methanone]",500 to 1000 nM
2,"O=C(c1nnc(C2CC2)o1)N1CCc2[nH]cnc2[C@H]1c1cc2c(F)cccn2n1 [Example 946, (S)-(5-cyclopropyl-1,3,4-oxadiazol-2-yl)(4-(4-fluoropyrazolo[1,5-a]pyridin-2-yl)-6,7-dihydro-1H-imidazo[4,5-c]pyridin-5(4H)-yl)methanone]",< 500 nM
3,"O=C(c1nnc(-c2cnccn2)o1)N1CCc2[nH]cnc2[C@@H]1c1cc2c(C(F)(F)F)cccn2n1 [Example 1301, (R)-(5-(pyrazin-2-yl)-1,3,4-oxadiazol-2-yl)(4-(4-(trifluoromethyl)pyrazolo[1,5-a]pyridin-2-yl)-6,7-dihydro-1H-imidazo[4,5-c]pyridin-5(4H)-yl)methanone]",> 5000 nM
4,"O=C(c1nnc(-c2ccn(C(F)F)n2)o1)N1CCc2[nH]cnc2[C@@H]1c1cc2c(C(F)(F)F)cccn2n1 [Example 908, (R)-(5-(1-(difluoromethyl)-1H-pyrazol-3-yl)-1,3,4-oxadiazol-2-yl)(4-(4-(trifluoromethyl)pyrazolo[1,5-a]pyridin-2-yl)-6,7-dihydro-1H-imidazo[4,5-c]pyridin-5(4H)-yl)methanone]",1000 to 5000 nM
5,"Cc1nc(C(C)(C)O)oc1C(=O)N1CCc2[nH]cnc2[C@H]1c1cc2c(F)cccn2n1 [Example 1000, (S)-(4-(4-fluoropyrazolo[1,5-a]pyridin-2-yl)-6,7-dihydro-1H-imidazo[4,5-c]pyridin-5(4H)-yl)(2-(2-hydroxypropan-2-yl)-4-methyloxazol-5-yl)methanone]",500 to 1000 nM
6,"Cc1nc(C(C)(C)F)oc1C(=O)N1CCc2[nH]cnc2[C@H]1c1cc2cccc(C)n2n1 [Example 1252, (S)-(2-(2-fluoropropan-2-yl)-4-methyloxazol-5-yl)(4-(7-methylpyrazolo[1,5-a]pyridin-2-yl)-6,7-dihydro-1H-imidazo[4,5-c]pyridin-5(4H)-yl)methanone]",< 500 nM
7,"Cc1cccc2cc([C@@H]3c4nc[nH]c4CCN3C(=O)c3nnc(-c4ccn(C(F)F)n4)o3)nn12 [Example 936, (S)-(5-(1-(difluoromethyl)-1H-pyrazol-3-yl)-1,3,4-oxadiazol-2-yl)(4-(7-methylpyrazolo[1,5-a]pyridin-2-yl)-6,7-dihydro-1H-imidazo[4,5-c]pyridin-5(4H)-yl)methanone]",< 500 nM
8,"Cc1nc([C@H](C)O)oc1C(=O)N1CCc2[nH]cnc2[C@H]1c1cc2c(Cl)cccn2n1 [Example 708, ((S)-4-(4-chloropyrazolo[1,5-a]pyridin-2-yl)-6,7-dihydro-1H-imidazo[4,5-c]pyridin-5(4H)-yl)(2((S)-1-hydroxyethyl)-4-methyloxazol-5-yl)methanone]",< 500 nM
9,"O=C(c1nnc(-c2ccn(C(F)(F)F)n2)o1)N1CCc2[nH]cnc2[C@@H]1c1cc2c(OC(F)F)cccn2n1 [Example 1709, (R)-(4-(4-(difluoromethoxy)pyrazolo[1,5-a]pyridin-2-yl)-6,7-dihydro-1H-imidazo[4,5-c]pyridin-5(4H)-yl)(5-(1-(trifluoromethyl)-1H-pyrazol-3-yl)-1,3,4-oxadiazol-2-yl)methanone]",> 5000 nM
10,"O=C(c1nnc(-c2ccncc2)o1)N1CCc2[nH]cnc2[C@H]1c1cc2c(F)cccn2n1 [Example 830, (S)-(4-(4-fluoropyrazolo[1,5-a]pyridin-2-yl)-6,7-dihydro-1H-imidazo[4,5-c]pyridin-5(4H)-yl)(5-(pyridin-4-yl)-1,3,4-oxadiazol-2-yl)methanone]",< 500 nM
11,"Cn1nccc1-c1nnc(C(=O)N2CCc3[nH]cnc3[C@@H]2c2cc3cccc(F)n3n2)o1 [Example 1527, (R)-(4-(7-fluoropyrazolo[1,5-a]pyridin-2-yl)-6,7-dihydro-1H-imidazo[4,5-c]pyridin-5(4H)-yl)(5-(1-methyl-1H-pyrazol-5-yl)-1,3,4-oxadiazol-2-yl)methanone]",> 5000 nM
12,"CCOc1cccc2cc([C@@H]3c4nc[nH]c4CCN3C(=O)c3ocnc3C(F)F)nn12 [Example 1240, (S)-(4-(difluoromethyl)oxazol-5-yl)(4-(7-ethoxypyrazolo[1,5-a]pyridin-2-yl)-6,7-dihydro-1H-imidazo[4,5-c]pyridin-5(4H)-yl)methanone]",< 500 nM
13,"Cc1cccn2nc([C@@H]3c4nc[nH]c4CCN3C(=O)c3nnc(-c4cnn(C)c4)o3)cc12 [Example 748, (S)-(5-(1-methyl-1H-pyrazol-4-yl)-1,3,4-oxadiazol-2-yl)(4-(4-methylpyrazolo[1,5-a]pyridin-2-yl)-6,7-dihydro-1H-imidazo[4,5-c]pyridin-5(4H)-yl)methanone]",< 500 nM
14,"Cc1nc(C(C)(C)F)oc1C(=O)N1CCc2[nH]cnc2[C@H]1c1cc2c(Cl)cccn2n1 [Example 1276, (S)-(4-(4-chloropyrazolo[1,5-a]pyridin-2-yl)-6,7-dihydro-1H-imidazo[4,5-c]pyridin-5(4H)-yl)(2-(2-fluoropropan-2-yl)-4-methyloxazol-5-yl)methanone]",< 500 nM
15,"O=C(c1nnc(-c2cnn(C(F)F)c2)o1)N1CCc2[nH]cnc2[C@H]1c1cc2c(OC(F)F)cccn2n1 [Example 1660, (S)-(4-(4-(difluoromethoxy)pyrazolo[1,5-a]pyridin-2-yl)-6,7-dihydro-1H-imidazo[4,5-c]pyridin-5(4H)-yl)(5-(1-(difluoromethyl)-1H-pyrazol-4-yl)-1,3,4-oxadiazol-2-yl)methanone]",500 to 1000 nM
